Laboratory results reported in US9359298B2, “Cajanine structure analogous compound, preparation method and use” (INSTITUTE OF MEDICINAL BIOTECHNOLOGY, CHINESE ACADEMY OF …, priority 2011, dated 2016).
Converted amounts (≈) assume the structure as drawn. Where two headings read alike, the source gives them in different places.

Columns and labels:
Type in all cases: cell-based
[1] = test system: Influenza A virus (hanfang359/95); assay: Determination of anti-influenza virus activity (CPE in MDCK cells); settings: for IC50: Influenza A virus, MDCK, 36 h; for anti-influenza virus activities compared with the lead compound cajanine: statement in words
[2] = test system: Coxsackie virus B6; assay: Coxsackie virus activity assay (CPE in Vero cells); settings: Vero
[3] = test system: HCV; assay: Anti-hepatitis C virus (HCV) activity assay (HCV RNA in Huh7.5 cells); settings: for EC50: Hepatitis C virus, Huh7.5, 72 h, Huh7.5 cells, 72 h, HCV RNA by RT-PCR, Reed-Muench, read-out: HCV EC50; for anti-HCV viral activity: statement in words
Description: Inoculate Huh7.5 cells into 96-well plates to a density of 3×10^4 cells/cm^2, culture for 24h, infect the cells with 45 IU/cell HCV supernatant, meanwhile, add drug solutions or solvent control for treatment.

[4] = test system: HIV-1 III B virus; assay: Anti-HIV activity assay (P24 antigen in MT-4 cells); settings: for IC50: Human immunodeficiency virus 1, MT4, 96 h, MT-4 cells, HIV-1 III B 100TCID50, 96 h, P24 antigen, read-out: HIV IC50; for anti-HIV viral activity: statement in words
[5] = test system: PC12 cells; assay: Neuroprotective activity assay, serum-deprived injury to PC12 cells (MTT); settings: for viability at 10 µM: Rattus norvegicus, PC-12, 48 h, 10 μM test compound, 48 h, Control 100.0 ± 9.2, Model 69.3 ± 4.1, read-out: serum-deprived (surviving PC12 cells, MTT 570 nm); for protective effect on serum-deprived injury to PC12 cells: statement in words
In short: (§1)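 Survival measured as MTT absorbance at 570 nm after 4 h dye uptake. Compounds (10 μM) were co-applied for 48 h to PC12 cells deprived of serum or exposed to 4 μM rotenone, following 24 h seeding on poly-lysine.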

[6] = test system: PC12 cells; assay: Neuroprotective activity assay, rotenone injury to PC12 cells (MTT); settings: for viability at 10 µM: Rattus norvegicus, PC-12, 48 h, 10 μM test compound, 4 μM rotenone, 48 h, Control 100.0 ± 8.9, Model 73.2 ± 7.8, read-out: rotenone (surviving PC12 cells, MTT 570 nm); for protective effect on rotenone injury to PC12 cells: statement in words
In short: as §1

[7] = read-out: COX-B6 IC50, Vero cells, about 100TCID50, CPE, Reed-Muench

Row | SMILES | IC50 [1] [µg/mL] | IC50 [2, 7] [µg/mL] | EC50 [3] [µg/mL] | IC50 [4] [µg/mL] | viability at 10 µM [5] [%] | protective effect on serum-deprived injury to PC12 cells [5] | viability at 10 µM [6] [%] | protective effect on rotenone injury to PC12 cells [6] | anti-influenza virus activities compared with the lead compound cajanine [1] | IC50 ([2]; read-out: COX-B6 IC50) [µg/mL] | anti-HCV viral activity [3] | anti-HIV viral activity [4]
1 | COc1cc(CCc2ccccc2)cc(O)c1CCC(C)C [Compound 10u, 2-isopentyl-3-methoxy-5-phenethyl phenol] | > 2.06 | > 6.19 | 4.06 (≈ 13.6 µM) | 6.39 (≈ 21.4 µM) | 87.6 ± 3.2 | the strongest activities | 85.4 ± 2.3 | the strongest activities | – | – | – | –
2 | COc1cc(CCc2ccccc2)cc(O)c1CC=C(C)C [Compound 10v, 2-isopentenyl-3-methoxy-5-phenethyl phenol] | > 0.69 | > 6.19 | 1.73 (≈ 5.84 µM) | 1.36 (≈ 4.59 µM) | 85.2 ± 4.1 | the strongest activities | 87.1 ± 2.5 | the strongest activities | – | – | – | –
3 | COc1cc(/C=C/c2ccccc2)cc(O)c1CCC(C)C [Compound 10w, 2-isopentyl-3-methoxy-5-[(E)-styryl]phenol] | 0.53 (≈ 1.79 µM) | 2.45 (≈ 8.27 µM) | 2.59 (≈ 8.74 µM) | 0.75 (≈ 2.53 µM) | 79.1 ± 4.6 | – | 78.2 ± 5.8 | – | significantly stronger than the lead compound cajanine | – | – | –
4 | COc1cc(/C=C/c2ccccn2)cc(O)c1CC=C(C)C [Compound 10x, 2-isopentenyl-3-methoxy-5-[(E)-2-(pyrid-2-yl)ethenyl]phenol] | 0.09 (≈ 0.305 µM) | 0.42 (≈ 1.42 µM) | 0.93 (≈ 3.15 µM) | 1.09 (≈ 3.69 µM) | 78.9 ± 4.6 | – | 78.9 ± 5.4 | – | significantly stronger than the lead compound cajanine | – | – | –
5 | COc1cc(/C=C/c2cc(OC)c(OC)c(OC)c2)cc(O)c1CC=C(C)C [Compound 10y, 2-isopentenyl-3-methoxy-5-[(E)-3,4,5-trimethoxystyryl]phenol] | 0.13 (≈ 0.338 µM) | 2.58 (≈ 6.71 µM) | 1.39 (≈ 3.62 µM) | 1.66 (≈ 4.32 µM) | 89.1 ± 5.4 | – | 89.5 ± 2.5 | – | significantly stronger than the lead compound cajanine | – | – | –
6 | COc1ccnc(/C=C/c2cc(O)c(CC=C(C)C)c(OC)c2)c1 [Compound 10z, 2-isopentenyl-3-methoxy-5-[(E)-2-(4-methoxypyrid-2-yl)ethenyl]phenol] | 0.32 (≈ 0.983 µM) | 0.84 (≈ 2.58 µM) | 1.19 (≈ 3.66 µM) | 2.83 (≈ 8.7 µM) | 84.6 ± 3.9 | – | 87 ± 5.1 | – | significantly stronger than the lead compound cajanine | – | – | –
7 | COC(=O)c1c(O)c(CC=C(C)C)c(OC)c(Cl)c1/C=C/c1ccccc1 [Compound 12, methyl 2-hydroxy-3-isopentenyl-4-methoxy-5-chloro-6-[(E)-styryl]benzoate] | 6.17 (≈ 15.9 µM) | > 6.17 | 6.87 (≈ 17.8 µM) | 8.17 (≈ 21.1 µM) | 60.2 ± 5.1 | – | 74.5 ± 3.2 | – | – | – | – | –
8 | COC(=O)c1c(/C=C/c2ccccc2)cc(OC)c(CC=C(C)C)c1OC [Compound 14, methyl 2,4-dimethoxy-3-isopentenyl-6-[(E)-styryl]benzoate] | > 2.06 | 1.6 (≈ 4.37 µM) | 1.77 (≈ 4.83 µM) | 1.32 (≈ 3.6 µM) | 69.7 ± 5.6 | – | 73.7 ± 8.5 | – | – | – | – | –
9 | COc1cc(/C=C/c2ccccc2)c(C(=O)O)c(OC)c1CC=C(C)C [Compound 15, 2-methoxy-3-isopentenyl-4-methoxy-6-[(E)-styryl]benzoic acid] | > 0.23 | > 2.06 | 0.83 (≈ 2.36 µM) | 1.43 (≈ 4.06 µM) | 74.1 ± 2.5 | – | 83.1 ± 5.7 | – | – | – | – | –
10 | COC(=O)c1c(O)cc(OC)c(CC=C(C)C)c1/C=C/c1ccccc1 [Compound 18, methyl 2-hydroxy-4-methoxy-5-isopentenyl-6-[(E)-styryl]benzoate] | > 18.5 | > 6.17 | 8.51 (≈ 24.1 µM) | 0.34 (≈ 0.965 µM) | 77.8 ± 6.3 | – | 74.9 ± 2.9 | – | – | – | – | –
11 | COc1cc(/C=C/Cc2ccccc2)cc(OC)c1 [Compound 21a, 1,3-dimethoxy-5-[(E)-3-phenylpropen-1-yl]benzene] | 1.32 (≈ 5.19 µM) | 4.23 (≈ 16.6 µM) | 2.83 (≈ 11.1 µM) | 1.1 (≈ 4.33 µM) | 81.2 ± 2.4 | – | 80.5 ± 2.3 | – | – | – | – | –
12 | Oc1cc(O)cc(/C=C/Cc2ccccc2)c1 [Compound 21b, 1,3-dihydroxy-5-[(E)-3-phenylpropen-1-yl]benzene] | 2.54 (≈ 11.2 µM) | 3.26 (≈ 14.4 µM) | 1.47 (≈ 6.5 µM) | 0.88 (≈ 3.89 µM) | 74.6 ± 3.5 | – | 78.9 ± 6.8 | – | – | – | – | –
13 | COc1cc(/C=C/c2ccc(OC)c(O)c2)cc(OC)c1 [Compound 21d, 1,3-dimethoxy-5-[(E)-3-hydroxy-4-methoxy-styryl]benzene] | 5.42 (≈ 18.9 µM) | – | 3.37 (≈ 11.8 µM) | 0.63 (≈ 2.2 µM) | 88.7 ± 6.3 | the strongest activities | 89.8 ± 2.8 | the strongest activities | – | 7.98 (≈ 27.9 µM) | – | –
14 | Oc1cc(O)cc(/C=C/c2ccc(O)c(O)c2)c1 [Compound 21e, 1,3-dihydroxy-5-[(E)-3,4-dihydroxystyryl]benzene] | 2.38 (≈ 9.74 µM) | 4.86 (≈ 19.9 µM) | 2.06 (≈ 8.43 µM) | 6.33 (≈ 25.9 µM) | 85.6 ± 4.2 | – | 87.4 ± 2.5 | – | – | – | – | –
15 | COc1cc(/C=C(\C)c2cc(O)cc(O)c2)cc(OC)c1 [Compound 21g, 1,3-dimethoxy-5-[(E)-2-(3,5-dihydroxyphenyl)propen-1-yl]benzene] | 4.25 (≈ 14.8 µM) | 6.84 (≈ 23.9 µM) | 0.9 (≈ 3.14 µM) | 1.27 (≈ 4.44 µM) | 80.2 ± 1.5 | – | 82.3 ± 3.1 | – | – | – | – | –
16 | C/C(=C\c1cc(O)cc(O)c1)c1cc(O)cc(O)c1 [Compound 21h, 1,3-dihydroxy-5-[(E)-2-(3,5-dihydroxyphenyl)propen-1-yl]benzene] | 5.84 (≈ 22.6 µM) | 6.98 (≈ 27 µM) | 4.46 (≈ 17.3 µM) | 5.28 (≈ 20.4 µM) | 74.8 ± 2.6 | – | 71.2 ± 3.8 | – | – | – | – | –
17 | COc1cc(/C=C/c2cc(O)c(O)c(O)c2)cc(OC)c1 [Compound 21j, 1,3-dimethoxy-5-[(E)-3,4,5-trihydroxystyryl]benzene] | 0.98 (≈ 3.4 µM) | 1.34 (≈ 4.65 µM) | 1.33 (≈ 4.61 µM) | 1.04 (≈ 3.61 µM) | 69.3 ± 2.5 | – | 75.6 ± 4.6 | – | – | – | – | –
18 | Oc1cc(O)cc(/C=C/c2cc(O)c(O)c(O)c2)c1 [Compound 21k, 1,3-dihydroxy-5-[(E)-3,4,5-trihydroxystyryl]benzene] | 0.54 (≈ 2.07 µM) | 0.78 (≈ 3 µM) | 8.36 (≈ 32.1 µM) | 10.3 (≈ 39.7 µM) | 74.5 ± 5.8 | – | 71.3 ± 8 | – | significantly stronger than the lead compound cajanine | – | – | –
19 | COc1cc(/C=C/c2ccccc2)c(C(=O)n2ccnc2)c(O)c1CC=C(C)C [Compound 22, (E)-(2-hydroxy-3-isopentenyl-4-methoxy-6-styrylphenyl)(1H-imidazol-1-yl)ketone] | 1.25 (≈ 3.22 µM) | 2.37 (≈ 6.1 µM) | 0.68 (≈ 1.75 µM) | 0.35 (≈ 0.901 µM) | 87.8 ± 2.9 | – | 85.6 ± 1.6 | – | – | – | – | –
20 | COc1cc(/C=C/c2ccccc2)c(C(=O)NC(N)=O)c(O)c1CC=C(C)C [Compound 23a, N-aminoformyl-2-hydroxy-3-isopentenyl-4-methoxy-6-[(E)-styryl]benzamide] | 0.09 (≈ 0.237 µM) | 0.32 (≈ 0.841 µM) | 0.66 (≈ 1.73 µM) | 0.74 (≈ 1.95 µM) | 87.9 ± 5.8 | – | 85.6 ± 8.7 | – | significantly stronger than the lead compound cajanine | – | stronger anti-HIV, HCV viral activities | stronger anti-HIV, HCV viral activities
21 | COc1cc(/C=C/c2ccccc2)c(C(=O)NC(=N)N)c(O)c1CC=C(C)C [Compound 23b, N-amidino-2-hydroxy-3-isopentenyl-4-methoxy-6-[(E)-styryl]benzamide] | 0.13 (≈ 0.343 µM) | 0.24 (≈ 0.632 µM) | 0.53 (≈ 1.4 µM) | 3.9 (≈ 10.3 µM) | 79.8 ± 4.6 | – | 81.3 ± 5 | – | significantly stronger than the lead compound cajanine | – | stronger anti-HIV, HCV viral activities | stronger anti-HIV, HCV viral activities
22 | COc1cc(/C=C/c2ccccc2)c(C(=O)O)c(OC(=O)CN)c1CC=C(C)C [Compound 24b, 2-Aminoacetoxy-3-isopentenyl-4-methoxy-6-[(E)-styryl]benzoic acid] | 4.25 (≈ 10.7 µM) | 1.24 (≈ 3.14 µM) | 1.68 (≈ 4.25 µM) | 2.01 (≈ 5.08 µM) | 89.7 ± 5.6 | – | 88.3 ± 5.2 | – | – | – | – | –
23 | COc1cc(/C=C/c2ccccc2)c(C(=O)O)c(OC(C)=O)c1CC=C(C)C [Compound 24h] | 0.45 (≈ 1.18 µM) | 1.21 (≈ 3.18 µM) | 2.39 (≈ 6.28 µM) | 1.33 (≈ 3.5 µM) | 88.9 ± 5.4 | – | 87.8 ± 6.3 | – | – | – | – | –
